Test results from PubChem BioAssay AID1645861 (Buhrlage Lab, Dana-Farber Cancer Institute and Novartis …, 2021).
Calls of active or inactive are those of the source.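 How the source made its calls: active means compounds whose peak USP7 inhibition across the dose series reached 30% or more; inactive means the rest.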

Target: Ubiquitin carboxyl-terminal hydrolase 7 (Homo sapiens) (UniProt Q93009)
Assay: Ubiquitin-specific protease 7 DUB inhibitors, concentration-effect, biochemical, validation of primary hits (AID 1645861)
Conditions: purified USP7, Ub-rhodamine cleavage fluorescence, 60 min

Chain of Ubiquitin carboxyl-terminal hydrolase 7 (Homo sapiens) (Q93009 whole entry, looked up): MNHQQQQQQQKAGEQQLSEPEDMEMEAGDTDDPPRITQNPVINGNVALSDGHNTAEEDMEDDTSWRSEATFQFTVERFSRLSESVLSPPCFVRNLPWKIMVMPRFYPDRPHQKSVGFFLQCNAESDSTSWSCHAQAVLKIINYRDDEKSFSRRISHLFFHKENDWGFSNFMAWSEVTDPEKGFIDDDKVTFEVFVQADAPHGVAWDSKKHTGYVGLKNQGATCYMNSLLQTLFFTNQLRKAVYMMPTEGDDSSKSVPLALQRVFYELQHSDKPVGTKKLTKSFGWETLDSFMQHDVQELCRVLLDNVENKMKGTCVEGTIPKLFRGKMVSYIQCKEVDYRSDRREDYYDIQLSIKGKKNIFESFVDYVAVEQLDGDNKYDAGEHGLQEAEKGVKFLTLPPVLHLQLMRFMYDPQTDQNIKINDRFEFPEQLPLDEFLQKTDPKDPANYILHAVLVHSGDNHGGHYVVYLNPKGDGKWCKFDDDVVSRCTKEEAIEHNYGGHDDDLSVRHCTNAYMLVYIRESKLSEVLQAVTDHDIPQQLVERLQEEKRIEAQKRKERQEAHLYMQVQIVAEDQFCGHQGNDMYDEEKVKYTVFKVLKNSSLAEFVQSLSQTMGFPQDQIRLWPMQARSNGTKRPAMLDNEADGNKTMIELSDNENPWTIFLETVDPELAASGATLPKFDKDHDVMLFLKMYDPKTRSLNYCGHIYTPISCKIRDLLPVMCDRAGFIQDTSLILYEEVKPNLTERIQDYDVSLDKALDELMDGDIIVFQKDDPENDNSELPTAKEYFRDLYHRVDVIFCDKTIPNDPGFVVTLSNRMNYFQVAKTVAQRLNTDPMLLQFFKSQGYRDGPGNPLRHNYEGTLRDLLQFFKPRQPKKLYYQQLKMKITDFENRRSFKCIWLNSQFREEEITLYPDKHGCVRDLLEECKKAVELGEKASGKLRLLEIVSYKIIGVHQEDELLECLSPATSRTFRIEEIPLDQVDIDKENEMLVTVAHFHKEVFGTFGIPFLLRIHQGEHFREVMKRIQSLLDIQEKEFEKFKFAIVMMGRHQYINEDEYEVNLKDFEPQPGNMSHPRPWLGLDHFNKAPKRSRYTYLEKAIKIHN

SMILES | IC50
COc1cccc(-n2cnc3cc(C(=O)NCCc4ccccc4)ccc3c2=O)c1 | > 50 µM (inactive)
CCOC(=O)C1CCN(C(=O)c2ccc3c(c2)NC(=O)C2CCCN32)CC1 (stereo not drawn) | > 50 µM (inactive)
COC1=C(C2=C(OC)C(=O)c3cc4c(c(O)c3C2=O)C(=O)OC(C)C4)C(=O)c2c(cc3c(c2O)C(=O)OC(C)C3)C1=O (stereo not drawn) | 44.7 µM
Cn1c2ccccc2c(=O)c2c(=O)n(Cc3ccco3)c(-c3ccccc3F)nc21 | > 50 µM (inactive)
O=C(CCCC(=O)N(c1ccc2c(c1)OCCO2)C(C(=O)NC1CCCCC1)c1ccc(F)cc1)Nc1ccccn1 (stereo not drawn) | > 50 µM (inactive)
COc1ccc(CCNC(=O)Cn2c(=O)c3sccc3n(Cc3cccc([N+](=O)[O-])c3)c2=O)cc1OC | > 50 µM (inactive)
COc1cc(O)c2c(O)c3c(cc2c1)C[C@@]1(O)CC(=O)C(C(N)=O)=C(O)[C@@]1(O)C3=O | 16.8 µM
O=C(O)c1cccc(NC(=O)C(Sc2cccc(NC(=O)c3cccc(Cl)c3)c2)c2ccccc2)c1 (stereo not drawn) | 45.8 µM
CSC1SCC2C(=O)N(C)C(C(C)C(C)C)C(=O)OCC(NC(=O)c3cnc4ccccc4n3)C(=O)NC(C)C(=O)N(C)C1C(=O)N(C)C(C(C)C(C)C)C(=O)OCC(NC(=O)c1cnc3ccccc3n1)C(=O)NC(C)C(=O)N2C (stereo not drawn) | > 50 µM (inactive)
Cc1cc(=O)n(C)c2c(O)c3c(cc12)c(C)cc(=O)n3C | > 50 µM (inactive)
FC(F)(F)c1ccc(Nc2nnnc3ccccc23)cc1 | 20.5 µM
O=C(CC1C(=O)Nc2nc3ccccc3n21)Nc1cccc2ccccc12 (stereo not drawn) | > 50 µM (inactive)
COc1ccc(NC(=O)Cn2cc(C(=O)c3ccc(Cl)cc3)c(=O)c3cc(F)ccc32)cc1 | 47 µM
O=c1c2[nH]c3ccccc3c2ncn1Cc1ccncc1 | > 50 µM (inactive)
Cc1ccc(NC(=O)Cn2cncc(-c3nc(-c4ccccc4)cs3)c2=O)cc1F | > 50 µM (inactive)
Cc1ccnc(Nc2nc(-c3ccccc3)c3cc(Cl)ccc3n2)n1 | 38.5 µM
CC(C)c1ccc(NC(=O)c2cc(-c3cccnc3)n[nH]2)cc1 | > 50 µM (inactive)
COc1cn(-c2ccc(F)cc2)nc1C(=O)Nc1ccc(Cl)cc1Cl | > 50 µM (inactive)
Cc1ccc(NCc2cc3c(-c4cccc(F)c4)nn(-c4ccccc4)c3[nH]c2=O)cc1C | 9 µM
N#Cc1ccccc1NC(=O)c1cc2c(s1)-c1ccccc1S(=O)(=O)C2 | > 50 µM (inactive)
O=C(CSc1oc(-c2ccc(F)cc2)nc1S(=O)(=O)c1ccc(F)cc1)Nc1ccc(F)cc1 | > 50 µM (inactive)
Cc1ccc2[nH]c(=O)c(-c3nc4ccccn4c3NCc3ccccc3)cc2c1 | > 50 µM (inactive)

SMILES | IC50
N#Cc1cccc(NC(=O)COC(=O)c2n[nH]c3ccccc23)c1 | > 50 µM (inactive)
O=C(Nc1ccccc1-c1nc2ccccc2[nH]1)c1sc2ccccc2c1Cl | 35.7 µM
O=c1ccc(-c2cc3ccccc3o2)cn1Cc1ccccc1-c1ccccc1 | 31.4 µM
O=C(Cn1c(=O)c2ccccc2c2ccccc21)Nc1ccc2c(c1)OCO2 | > 50 µM (inactive)
CCC(=O)Nc1nc2cc(NC(=O)Nc3cccc(C)c3)ccc2s1 | > 50 µM (inactive)
O=C(NCc1ccc2c(c1)OCO2)c1[nH]nc2c1COc1ccccc1-2 | > 50 µM (inactive)
O=C1CC(c2nc3ccccc3n2CCOc2ccc(Cl)cc2)CN1c1ccccc1 (stereo not drawn) | > 50 µM (inactive)
Cn1c(=O)c2ncnnc2n(C)c1=O | > 50 µM (inactive)
O=C(O)CCCCCN1C(=O)CC(c2ccc(Cl)cc2)CC1=O | > 50 µM (inactive)
Cc1ccc(Cn2cc(C(=O)Nc3ccccc3C(N)=O)ccc2=O)cc1 | > 50 µM (inactive)
O=C(CSc1ccc(-c2cccc([N+](=O)[O-])c2)nn1)Nc1cccc(F)c1 | > 50 µM (inactive)
Cc1cccc(Cl)c1NC(=O)Nc1ccc(NC(=O)c2ccccc2O)cc1 | > 50 µM (inactive)
COc1ccccc1N1CCN(C(=O)c2ccc3c(=O)n(CCc4ccccc4)c(=O)[nH]c3c2)CC1 | > 50 µM (inactive)
Cc1ccc(NC(=O)Nc2ccc(C)n(CC(=O)Nc3ccc(C)cc3C)c2=O)cc1 | 40.2 µM
O=C(Nc1ccccc1)[C@@H]1[C@@H]2C(=O)N(c3ccc([N+](=O)[O-])cc3)C(=O)[C@@H]2[C@H]2c3ccccc3C=CN12 | > 50 µM (inactive)
Cc1ccc(C)c(NC(=O)Cn2cc(C(=O)C3CC3)c3ccccc32)c1 | 40.6 µM
COc1cc(NC(=O)Cc2ccccc2)ccc1NC(=O)c1cc2ccccc2o1 | > 50 µM (inactive)
Cc1ccc(Nc2nc(NCC(=O)Nc3cc(C)ccc3C)nc(Nc3ccc(C)cc3)n2)cc1 | > 50 µM (inactive)
O=c1cc(-c2ccc(O)c(O)c2)oc2cc(O)cc(O)c12 | 2.81 µM
COC(=O)c1ccc2c(=O)n(CCCCCC(=O)NCCc3ccccc3Cl)c(=O)[nH]c2c1 | > 50 µM (inactive)
COc1ccc(CC(=O)Nc2ccccc2-c2nc3ccccc3[nH]2)cc1OC | > 50 µM (inactive)
Cc1nnc(NC(=O)C2CCN(c3ccc(S(N)(=O)=O)cc3[N+](=O)[O-])CC2)o1 | 49.4 µM

SMILES | IC50
O=C(Cn1c(=O)n(CCC(=O)N2CCc3ccccc3C2)c(=O)c2ccccc21)NCc1ccccc1Cl | > 50 µM (inactive)
CCOc1ccc(-n2c(=O)c3sccc3n(CC(=O)Nc3cccc(C)c3)c2=O)cc1 | > 50 µM (inactive)
Cc1ccc2c(c1)c(=O)c(C(=O)c1ccccc1)cn2CC(=O)Nc1ccccc1 | > 50 µM (inactive)
Cc1ccc(S(=O)(=O)Nc2ccccc2C(=O)Nc2nc3ccc(Br)cc3s2)cc1 | 10 µM
O=C(Cn1c(=O)c2sccc2n(CC(=O)OCc2ccccc2)c1=O)NCc1ccccc1Cl | > 50 µM (inactive)
O=c1cc(-c2ccc(O)c(O)c2)oc2cc(O[C@@H]3O[C@H](CO)[C@@H](O)[C@H](O)[C@H]3O)cc(O)c12 | 0.713 µM
O=C1c2c(O)cccc2C2(Oc3cccc4cccc(c34)O2)C2OC12 (stereo not drawn) | > 50 µM (inactive)
C=C1C=C(CCC(=O)O)C(=O)OC1/C=C/C=C/C (stereo not drawn) | 18.2 µM
O=C1NC(=O)/C(=C/c2ccc(OC(=O)c3ccc(Cl)cc3Cl)cc2)N1 | > 50 µM (inactive)
Cc1ccc(C(=O)c2cn(CC(=O)Nc3ccc4c(c3)OCO4)c3ccccc3c2=O)cc1 | > 50 µM (inactive)
CC(NC(=O)c1ccccc1)c1nc2ccccc2n1CC(=O)Nc1ccc(C#N)cc1 (stereo not drawn) | > 50 µM (inactive)
CCOC(=O)C1CCN(Cc2cc(=O)oc3cc(O)c(O)cc23)CC1 | 6.18 µM
O=C(CCCn1c(=O)c2sccc2n(CC(=O)NCCC2=CCCCC2)c1=O)NCc1ccc2c(c1)OCO2 | > 50 µM (inactive)
COc1cc2c(=O)n(CC3CCCO3)c(=O)n(CC(=O)c3ccc4c(c3)OCO4)c2cc1OC (stereo not drawn) | > 50 µM (inactive)
CCCCCCCc1cc(OC(=O)c2c(CCCCCCC)cc(O)cc2O[C@@H]2O[C@H](CO)[C@@H](O)[C@H](O)[C@H]2O)cc(O)c1C(=O)O | 9.94 µM
Cc1ccc(-n2cc(C(=O)NCCCc3ccccc3)nn2)cc1 | > 50 µM (inactive)
O=C1Nc2ccccc2C(=O)C1C(c1ccc(Cl)cc1)C1C(=O)Nc2ccccc2C1=O (stereo not drawn) | 44.8 µM
CCCCCCCc1cc(OC(=O)c2c(CCCCCCC)cc(O)cc2O[C@@H]2O[C@H](CO)[C@H](O)[C@H](O)[C@H]2O)cc(O)c1C(=O)O | 21.4 µM
CC(=O)Nc1ccc(NC(=O)c2ccc3c(c2)CC(c2ccccc2)OC3=O)cc1 (stereo not drawn) | > 50 µM (inactive)
Cc1ccc2[nH]c(=O)c(-c3nc4ccc(C)cn4c3NCc3ccc(F)cc3)cc2c1 | 24.6 µM
O=c1[nH]c(C2CCN(S(=O)(=O)c3ccc(S(=O)(=O)NC4CCCCC4)cc3)CC2)nc2c1nnn2Cc1c(F)cccc1Cl | > 50 µM (inactive)
NC(=O)c1ccccc1NC(=O)COc1ccc2c(c1)oc(=O)c1ccccc12 | > 50 µM (inactive)

SMILES | IC50
CN(C)[C@@H]1C(=O)C(C(N)=O)=C(O)[C@@]2(O)C(=O)C3=C(O)c4c(O)cccc4[C@@](C)(O)C3[C@H](O)[C@@H]12 (stereo partly drawn) | 6.37 µM
O=C(Cn1c(=O)c2ccccc2n(CC(=O)Nc2cccc(F)c2)c1=O)NCCc1ccccc1 | > 50 µM (inactive)
O=C1C=C(O)c2c(O)cccc2C1=O | > 50 µM (inactive)
O=C(Nc1ccccc1C(=O)O)c1ccc(CSCc2ccccc2)cc1 | > 50 µM (inactive)
CCC(=O)Nc1cccnc1-c1ccc(C(=O)Nc2ccc3c(c2)OCO3)cc1 | > 50 µM (inactive)
CCn1cc2c(n1)c(=O)n(Cc1ccccc1)c(=O)n2CC(=O)Nc1ccc(OC)cc1 | > 50 µM (inactive)
Cc1ccc(Cl)cc1NC(=O)Cn1c(=O)n(CCC(=O)NCc2ccco2)c(=O)c2ccccc21 | > 50 µM (inactive)
COc1cccc(C(=O)Nc2ccc(SC(C)C(=O)Nc3ccc(C(N)=O)cc3)cc2)c1 (stereo not drawn) | > 50 µM (inactive)
Cc1cccc2nc(CSc3nc4ccc([N+](=O)[O-])cc4[nH]3)cn12 | > 50 µM (inactive)
Cc1sc2ccn(C)c(=O)c2c1C(=O)NC1CCCC1 | > 50 µM (inactive)
Cc1ccc([N+](=O)[O-])cc1S(=O)(=O)Nc1cc2sc(=O)oc2c2ccccc12 | > 50 µM (inactive)
C[C@@H]1OC2=C(C(=O)c3cccc(O)c3C2=O)[C@H](O)[C@@H]1O | > 50 µM (inactive)
COC(=O)c1ccccc1NC(=O)Cn1c(=O)n(Cc2ccc(C(=O)NCc3ccco3)cc2)c(=O)c2ccccc21 | > 50 µM (inactive)
O=C(Cn1c(=O)n(Cc2ccccc2)c(=O)c2ncccc21)NCc1ccccc1Cl | 43.6 µM
O=C(CCCn1c(=O)[nH]c2cc(Cl)ccc2c1=O)NCCCN1CCCC1=O | > 50 µM (inactive)
O=C(Cn1cccc(-c2nc(-c3ccccc3)no2)c1=O)Nc1ccccc1F | > 50 µM (inactive)
Cc1ccc(NC(=O)Cc2nnc3cc(-c4nc(C)no4)ccn23)cc1 | 45.4 µM
COc1ccc(-c2ccc3cc(C(=O)O)ccc3c2)cc1C12CC3CC(CC(C3)C1)C2 | > 50 µM (inactive)
Cc1cc(C(=O)N2CCOCC2)c(C)n1-c1ccc(O)cc1 | > 50 µM (inactive)
O=C(Cn1c(=O)n(Cc2ccc(C(=O)NCc3ccco3)cc2)c(=O)c2ccccc21)Nc1ccc2c(c1)OCCO2 | > 50 µM (inactive)
O=C(Nc1ccccc1Cc1ccccc1)c1nc2n(n1)-c1ccccc1S(=O)(=O)N2 | > 50 µM (inactive)
CCOc1ccc2c(c1)c(=O)c(C(=O)c1ccccc1)cn2CC(=O)Nc1ccc(Cl)cc1 | 41.6 µM
